What all share (assay type): cell-based
One experiment concerns the target TRPML1 (Homo sapiens, UniProt Q9GZU1). Put plainly: Fluorescent TRPML1 assay (Fluo4-AM calcium fluorescence in doxycycline-induced HEK-293 Trex cells). The method in brief: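 hTRPML1 (mutated for cell-surface expression) in HEK-293 Trex, dox 0.5 ug/mL o/n; Fluo4-AM 1 uM ~60 min, then ~60 min de-esterification, dark; modified Ringer's + 10 mM Ca. Cmpds 20 uM–6 nM final, half-log, n=3. Ex480/Em540; % activity vs ctrls; EC50 by nonlinear regression.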

The target of a further experiment is T1, TRPML2 (Homo sapiens, UniProt Q8IZK6).
T1 construct: expressed in transfected cells
T1 sequence (Q8IZK6 1-566): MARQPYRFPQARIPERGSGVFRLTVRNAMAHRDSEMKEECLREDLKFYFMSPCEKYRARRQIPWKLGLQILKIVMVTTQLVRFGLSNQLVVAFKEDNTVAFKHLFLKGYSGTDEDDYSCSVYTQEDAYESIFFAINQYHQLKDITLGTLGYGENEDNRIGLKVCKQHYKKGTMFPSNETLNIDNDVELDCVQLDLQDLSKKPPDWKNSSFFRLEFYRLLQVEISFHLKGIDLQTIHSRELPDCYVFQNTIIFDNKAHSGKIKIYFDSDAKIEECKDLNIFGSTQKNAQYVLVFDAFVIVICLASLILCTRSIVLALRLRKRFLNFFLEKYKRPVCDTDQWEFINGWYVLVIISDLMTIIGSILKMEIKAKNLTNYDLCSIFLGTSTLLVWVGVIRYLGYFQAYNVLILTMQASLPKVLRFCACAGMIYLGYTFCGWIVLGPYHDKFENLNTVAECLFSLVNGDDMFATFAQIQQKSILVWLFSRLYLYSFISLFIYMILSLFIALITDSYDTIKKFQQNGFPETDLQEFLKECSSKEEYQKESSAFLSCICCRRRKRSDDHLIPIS
Put plainly: Fluorescent TRPML2 assay (performed as for TRPML1, substituting the TRPML2 subtype). The method in brief: (§1)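 HEK-293 Trex cells with doxycycline-induced (0.5 ug/mL) surface-directed human TRPML subtype, loaded with 1 μM Fluo4-AM, resuspended in Ringer's with 10 mM calcium. Compounds at 20 μM to 6 nM final in half-log steps, triplicate; fluorescence ex 480/em 540; EC50 by non-linear regression versus plate controls.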

For the next experiment, the target named is T2, TRPML3 (Homo sapiens, UniProt Q8TDD5).
T2 construct: expressed in transfected cells
T2 sequence (Q8TDD5 1-553): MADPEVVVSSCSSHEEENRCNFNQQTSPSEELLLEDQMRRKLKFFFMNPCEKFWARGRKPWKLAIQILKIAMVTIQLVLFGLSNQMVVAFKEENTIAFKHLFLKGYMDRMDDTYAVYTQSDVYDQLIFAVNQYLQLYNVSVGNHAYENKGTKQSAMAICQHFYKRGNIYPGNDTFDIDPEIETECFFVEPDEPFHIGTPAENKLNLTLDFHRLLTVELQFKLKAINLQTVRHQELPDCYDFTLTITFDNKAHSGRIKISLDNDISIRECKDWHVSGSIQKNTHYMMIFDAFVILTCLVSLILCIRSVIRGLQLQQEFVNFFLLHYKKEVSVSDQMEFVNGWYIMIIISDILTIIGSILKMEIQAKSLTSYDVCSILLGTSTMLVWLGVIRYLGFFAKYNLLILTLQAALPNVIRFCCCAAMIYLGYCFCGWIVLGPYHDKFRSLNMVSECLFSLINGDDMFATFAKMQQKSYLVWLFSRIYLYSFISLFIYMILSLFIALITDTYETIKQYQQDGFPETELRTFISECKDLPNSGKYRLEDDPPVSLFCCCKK
As to the kind of experiment: Fluorescent TRPML3 assay (performed as for TRPML1, substituting the TRPML3 subtype). In outline:
as §1

17 compounds from patent US20250136606A1, “MODULATORS OF TRPML, THEIR COMPOSITIONS AND METHODS OF USE” (Caraway Therapeutics, Inc., priority 2021, published 2025) can be followed below.

SMILES strings stand for the structures. pEC50: −log10 of the molar value. Where two headings read alike, the source gives them in different places.

TRPML1, sequence (Q9GZU1 whole entry L15A/L16A/L577A/L578A, form open): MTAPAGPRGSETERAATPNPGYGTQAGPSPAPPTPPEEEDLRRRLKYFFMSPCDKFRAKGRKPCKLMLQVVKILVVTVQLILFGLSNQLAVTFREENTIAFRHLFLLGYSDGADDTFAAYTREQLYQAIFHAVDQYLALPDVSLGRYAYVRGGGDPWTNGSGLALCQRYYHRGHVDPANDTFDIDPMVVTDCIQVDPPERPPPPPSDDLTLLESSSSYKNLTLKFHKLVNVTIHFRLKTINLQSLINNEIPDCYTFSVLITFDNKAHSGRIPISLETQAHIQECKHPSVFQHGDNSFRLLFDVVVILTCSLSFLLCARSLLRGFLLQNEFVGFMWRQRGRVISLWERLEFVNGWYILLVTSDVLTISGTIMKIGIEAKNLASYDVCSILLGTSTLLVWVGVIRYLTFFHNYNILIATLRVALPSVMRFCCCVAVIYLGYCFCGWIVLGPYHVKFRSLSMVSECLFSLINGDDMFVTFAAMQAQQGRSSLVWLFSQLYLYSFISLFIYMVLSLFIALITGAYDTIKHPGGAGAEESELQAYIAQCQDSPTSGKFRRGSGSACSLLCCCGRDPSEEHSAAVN

Consider `CCN(CCOC)c1cn(-c2cc(C#N)ccn2)c2ncnc(N3CCN(C(=O)OC(C)(C)C)C[C@@H]3C)c12` [Compound 486, tert-butyl (S)-4-(7-(4-cyanopyridin-2-yl)-5-(ethyl(2-methoxyethyl)amino)-7H-pyrrolo[2,3-d]pyrimidin-4-yl)-3-methylpiperazine-1-carboxylate], for which the pEC50 at TRPML1 (fluorescent calcium assay) was > 7.00; at TRPML2 (fluorescent calcium assay), 6.30 to 7.00; at TRPML3 (fluorescent calcium assay), > 7.00.

Turning to `C[C@@H]1CN(c2ncnc3c2c(N2CC4(COC4)C2)cn3-c2cc(C#N)ccn2)[C@@H](C)CN1C(=O)OC(C)(C)C` [Compound 504, tert-butyl (2R,5S)-4-(7-(4-cyanopyridin-2-yl)-5-(2-oxa-6-azaspiro[3.3]heptan-6-yl)-7H-pyrrolo[2,3-d]pyrimidin-4-yl)-2,5-dimethylpiperazine-1-carboxylate], the pEC50 was > 7.00 on TRPML1, 6.30 to 7.00 at TRPML2 and > 7.00 on TRPML3.

Regarding `C[C@H]1CN(C(=O)OC(C)(C)C)CCN1c1ncnc2c1c(N1CCCCC1)cn2-c1cccc(Cl)c1` [Compound 310, tert-butyl (S)-4-(7-(3-chlorophenyl)-5-(piperidin-1-yl)-7H-pyrrolo[2,3-d]pyrimidin-4-yl)-3-methylpiperazine-1-carboxylate], the negative-log EC50 (pEC50) at TRPML1 (fluorescent calcium assay), at TRPML2 (fluorescent calcium assay) and on TRPML3 (fluorescent calcium assay) was > 7.00 throughout.

On to `CC(C)(C)OC(=O)N1CCN(c2ncnc3c2c(C2CC2)cn3-c2ccc(Cl)c(F)c2)CC1` [Compound 145, tert-butyl 4-(7-(4-chloro-3-fluorophenyl)-5-cyclopropyl-7H-pyrrolo[2,3-d]pyrimidin-4-yl)piperazine-1-carboxylate], for which the values for the negative logarithm of the EC50 (pEC50) on TRPML1 (fluorescent calcium assay), at TRPML2 (fluorescent calcium assay) and on TRPML3 (fluorescent calcium assay) were 6.30 to 7.00, > 7.00 and > 7.00, respectively.

In the case of `C[C@H]1CN(C(=O)OC(C)(C)C)CCN1c1ncnc2c1c(N1CCCC1)cn2-c1cc(F)cc(F)c1` [Compound 253, tert-butyl (S)-4-(7-(3,5-difluorophenyl)-5-(pyrrolidin-1-yl)-7H-pyrrolo[2,3-d]pyrimidin-4-yl)-3-methylpiperazine-1-carboxylate], the pEC50 is > 7.00 at TRPML1 (fluorescent calcium assay), 6.30 to 7.00 on TRPML2 (fluorescent calcium assay) and > 7.00 on TRPML3 (fluorescent calcium assay).

`C[C@H]1CN(C(=O)OC(C)(C)C(F)(F)F)CCN1c1ncnc2c1c(-c1cnn(C)c1)cn2-c1cccc(C#N)c1` [Compound 329, 1,1,1-trifluoro-2-methylpropan-2-yl (S)-4-(7-(3-cyanophenyl)-5-(1-methyl-1H-pyrazol-4-yl)-7H-pyrrolo[2,3-d]pyrimidin-4-yl)-3-methylpiperazine-1-carboxylate]: the pEC50 is 5.70 to 6.30 at TRPML1 (fluorescent calcium assay), < 5.70 at TRPML2 (fluorescent calcium assay) and 6.30 to 7.00 at TRPML3 (fluorescent calcium assay).

In the case of `C[C@H]1CN(C(=O)OC(C)(C)C)CCN1c1ncnc2c1c(C1CC1)cn2-c1ccc(F)c(F)c1` [Compound 219, tert-butyl (S)-4-(5-cyclopropyl-7-(3,4-difluorophenyl)-7H-pyrrolo[2,3-d]pyrimidin-4-yl)-3-methylpiperazine-1-carboxylate], the values for the pEC50 on TRPML1 (fluorescent calcium assay), on TRPML2 (fluorescent calcium assay) and at TRPML3 (fluorescent calcium assay) were > 7.00, 6.30 to 7.00 and > 7.00, respectively.

Consider `C[C@@H]1CN(c2ncnc3c2c(C(F)(F)F)cn3-c2cccc(F)c2)[C@@H](C)CN1C(=O)OC(C)(C)C` [Compound 496, tert-butyl (2R,5S)-4-(7-(3-fluorophenyl)-5-(trifluoromethyl)-7H-pyrrolo[2,3-d]pyrimidin-4-yl)-2,5-dimethylpiperazine-1-carboxylate], for which the pEC50 on TRPML1 is > 7.00; at TRPML2 it was 6.30 to 7.00; at TRPML3, > 7.00.

Consider `C[C@H]1CN(C(=O)OC(C)(C)CF)CCN1c1ncnc2c1c(-c1ccccc1)cn2-c1cnn(C)c1` [Compound 191, 1-fluoro-2-methylpropan-2-yl (S)-3-methyl-4-(7-(1-methyl-1H-pyrazol-4-yl)-5-phenyl-7H-pyrrolo[2,3-d]pyrimidin-4-yl)piperazine-1-carboxylate], for which the values for the pEC50 at TRPML1 (fluorescent calcium assay), on TRPML2 (fluorescent calcium assay) and on TRPML3 (fluorescent calcium assay) were 6.30 to 7.00, 5.70 to 6.30 and 6.30 to 7.00, respectively.

On to `C[C@H]1CN(C(=O)OC(C)(C)C)CCN1c1ncnc2c1c(N1CCC1)cn2-c1cccc(C#N)c1` [Compound 350, tert-butyl (S)-4-(5-(azetidin-1-yl)-7-(3-cyanophenyl)-7H-pyrrolo[2,3-d]pyrimidin-4-yl)-3-methylpiperazine-1-carboxylate], for which the pEC50 at TRPML1 (fluorescent calcium assay), on TRPML2 (fluorescent calcium assay) and on TRPML3 (fluorescent calcium assay) was > 7.00 throughout.

Regarding `C[C@H]1CN(C(=O)OC(C)(C)C)CCN1c1ncnc2c1c(N(C)C1CC1)cn2-c1cccc(Cl)c1` [Compound 522, tert-butyl (S)-4-(7-(3-chlorophenyl)-5-(cyclopropyl(methyl)amino)-7H-pyrrolo[2,3-d]pyrimidin-4-yl)-3-methylpiperazine-1-carboxylate], the pEC50 on TRPML1 was 6.30 to 7.00; at TRPML2, 6.30 to 7.00; on TRPML3 it was > 7.00.

As to `C[C@H]1CN(C(=O)OC(C)(C)C)CCN1c1ncnc2c1c(-c1ccncc1)cn2-c1cc(C#N)ccn1` [Compound 354, tert-butyl (S)-4-(7-(4-cyanopyridin-2-yl)-5-(pyridin-4-yl)-7H-pyrrolo[2,3-d]pyrimidin-4-yl)-3-methylpiperazine-1-carboxylate], the pEC50 on TRPML1 (fluorescent calcium assay), at TRPML2 (fluorescent calcium assay) and on TRPML3 (fluorescent calcium assay) was > 7.00 each time.

In the case of `CC(C)N(C)c1cn(-c2cc(C#N)ccn2)c2ncnc(N3CCN(C(=O)OC(C)(C)C)C[C@@H]3C)c12` [Compound 443, tert-butyl (S)-4-(7-(4-cyanopyridin-2-yl)-5-(isopropyl(methyl)amino)-7H-pyrrolo[2,3-d]pyrimidin-4-yl)-3-methylpiperazine-1-carboxylate], the pEC50 at TRPML1 (fluorescent calcium assay), at TRPML2 (fluorescent calcium assay) and at TRPML3 (fluorescent calcium assay) was > 7.00 throughout.

With `C[C@@H]1CN(c2ncnc3c2c(C(C)(C)C)cn3-c2cc(C#N)ncn2)[C@@H](C)CN1C(=O)OC(C)(C)C` [Compound 533, tert-butyl (2R,5S)-4-(5-(tert-butyl)-7-(6-cyanopyrimidin-4-yl)-7H-pyrrolo[2,3-d]pyrimidin-4-yl)-2,5-dimethylpiperazine-1-carboxylate], the pEC50 on TRPML1, on TRPML2 and at TRPML3 was > 7.00 each time.

As to `C[C@H]1CN(C(=O)OC(C)(C)C)CCN1c1ncnc2c1c(N(C)C)cn2-c1cc(C#N)ccn1` [Compound 426, tert-butyl (S)-4-(7-(4-cyanopyridin-2-yl)-5-(dimethylamino)-7H-pyrrolo[2,3-d]pyrimidin-4-yl)-3-methylpiperazine-1-carboxylate], the pEC50 on TRPML1 (fluorescent calcium assay), on TRPML2 (fluorescent calcium assay) and at TRPML3 (fluorescent calcium assay) was > 7.00 throughout.

Regarding `C[C@@H]1CN(C(=O)OC(C)(C)C)CCN1c1ncnc2c1c(C1CCCC1)cn2-c1cccc(Cl)c1` [Compound 157, tert-butyl (R)-4-(7-(3-chlorophenyl)-5-cyclopentyl-7H-pyrrolo[2,3-d]pyrimidin-4-yl)-3-methylpiperazine-1-carboxylate], the pEC50 on TRPML1 (fluorescent calcium assay) is 6.30 to 7.00; on TRPML2 (fluorescent calcium assay) it was 6.30 to 7.00; on TRPML3 (fluorescent calcium assay) it was > 7.00.

As for `C[C@H]1CN(C(=O)OC(C)(C)C)CCN1c1ncnc2c1c(-c1cnccn1)cn2-c1cc(F)cc(F)c1` [Compound 237, tert-butyl-(S)-4-(7-(3,5-difluorophenyl)-5-(pyrazin-2-yl)-7H-pyrrolo[2,3-d]pyrimidin-4-yl)-3-methylpiperazine-1-carboxylate], the pEC50 on TRPML1 (fluorescent calcium assay) was 5.70 to 6.30; on TRPML2 (fluorescent calcium assay), 5.70 to 6.30; at TRPML3 (fluorescent calcium assay) it was 6.30 to 7.00.
